Measurements as given in patent US20260216170A1, “TETRAHYDROISOQUINOLINE HETEROBIFUNCTIONAL BCL-XL DEGRADERS” (Treeline Biosciences, Inc., priority 2023, published 2026).

Target: T1, Human BCL-XL protein (N-terminal HiBiT tagged BCL-XL expressed in HT1080 cells) (Homo sapiens, UniProt Q07817)
T1 construct: expressed in transfected cells; host or cells: HT-1080 (ATCC CCL-121), stably transduced with lentivirus pLV-UBC-N-HiBiT-BCL-XL-PGK-puro and selected with puromycin
Assay: HiBiT Based Degradation Assay
Assay type: cell-based
Details: 24 hours incubation; for DC50: BCL-XL degradation, HT1080 cells expressing N-HiBiT-BCL-XL, normalized with DMSO control, geometric mean for multiple data points, read-out: EC50 (24 h); for Ymin (24 h): bottom of BCL-XL degradation curve (remaining HiBiT-BCL-XL signal vs DMSO control), HT1080 cells
Procedure, shortened: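 BCL-XL degradation was read as Nano-Glo HiBiT lytic luminescence relative to DMSO after a 24 h compound treatment of HT1080 cells carrying stably integrated N-HiBiT-BCL-XL. EC50 values come from four-parameter logistic curves, with the hook-curve minimum fixed as bottom, and are geometric means where tested repeatedly.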

T1 sequence (Q07817 whole entry): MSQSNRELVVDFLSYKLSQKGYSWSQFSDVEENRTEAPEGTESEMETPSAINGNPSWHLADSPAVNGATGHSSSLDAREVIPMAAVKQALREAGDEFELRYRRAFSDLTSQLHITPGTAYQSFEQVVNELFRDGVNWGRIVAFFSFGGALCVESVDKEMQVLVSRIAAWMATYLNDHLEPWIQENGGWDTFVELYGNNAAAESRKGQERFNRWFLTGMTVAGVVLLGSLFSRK

DC50 [nM]	Ymin (24 h)	SMILES
< 10	A (Ymin < 30%)	Cc1cc(OCC2CC3(CCN(CC(=O)Nc4ccc5c(C6CCC(=O)NC6=O)nn(C)c5c4)CC3)C2)ccc1-c1ccc(N2CCc3ccnc(C(=O)Nc4nc5ccccc5s4)c3C2)nc1C(=O)O (centres unmarked) [Compound 135, 6-[8-(1,3-benzothiazol-2-ylcarbamoyl)-3,4-dihydro-1H-2,7-naphthyridin-2-yl]-3-[4-[[7-[2-[[3-(2,6-dioxo-3-piperidyl)-1-methyl-indazol-6-yl]amino]-2-oxo-ethyl]-7-azaspiro[3.5]nonan-2-yl]methoxy]-2-methyl-phenyl]pyridine-2-carboxylic acid]
10 to 100	B (30% ≤ Ymin < 50%)	Cc1cc(OCC2CC3(CCN(CC(=O)Nc4ccc5c(C6CCC(=O)NC6=O)nn(C)c5c4C(F)(F)F)CC3)C2)ccc1-c1ccc(N2CCc3cccc(C(=O)Nc4nc5ccccc5s4)c3C2)nc1C(=O)O (centres unmarked) [Compound 136]
10 to 100	C (50% ≤ Ymin < 70%)	Cc1c(OCC2CC3(CCN(CC(=O)Nc4ccc5c(C6CCC(=O)NC6=O)nn(C)c5c4C(F)(F)F)CC3)C2)cccc1-c1ccc(N2CCc3cccc(C(=O)Nc4nc5ccccc5s4)c3C2)nc1C(=O)O (centres unmarked) [Compound 137]
1000 to 10000	C (50% ≤ Ymin < 70%)	Cc1c(OCC2CC3(CCN(CC(=O)Nc4cc5c(cc4C(F)(F)F)c(C4CCC(=O)NC4=O)nn5C)CC3)C2)cccc1-c1ccc(N2CCc3cccc(C(=O)Nc4nc5ccccc5s4)c3C2)nc1C(=O)O (centres unmarked) [Compound 139]
< 10	A (Ymin < 30%)	Cc1cc(OCCCC2CCN(CC(=O)Nc3ccc4c(C5CCC(=O)NC5=O)nn(C)c4c3)CC2)ccc1-c1ccc(N2CCc3ccnc(C(=O)Nc4nc5ccccc5s4)c3C2)nc1C(=O)O (centres unmarked) [Compound 141, 6-[8-(1,3-benzothiazol-2-ylcarbamoyl)-3,4-dihydro-1H-2,7-naphthyridin-2-yl]-3-[4-[3-[1-[2-[[3-(2,6-dioxo-3-piperidyl)-1-methyl-indazol-6-yl]amino]-2-oxo-ethyl]-4-piperidyl]propoxy]-2-methyl-phenyl]pyridine-2-carboxylic acid]
10 to 100	A (Ymin < 30%)	COc1c(NC(=O)CN2CCC(CCCOc3ccc(-c4ccc(N5CCc6cccc(C(=O)Nc7nc8ccccc8s7)c6C5)nc4C(=O)O)c(C(F)(F)F)c3)CC2)ccc2c(C3CCC(=O)NC3=O)nn(C)c12 (centres unmarked) [Compound 142]
10 to 100	B (30% ≤ Ymin < 50%)	COc1c(NC(=O)CN2CCC3(CC2)CC(COc2cccc(-c4ccc(N5CCc6cccc(C(=O)Nc7nc8ccccc8s7)c6C5)nc4C(=O)O)c2C(F)(F)F)C3)ccc2c(C3CCC(=O)NC3=O)nn(C)c12 (centres unmarked) [Compound 143, 6-(8-(benzo[d]thiazol-2-ylcarbamoyl)-3,4-dihydroisoquinolin-2(1H)-yl)-3-(3-((7-(2-((3-(2,6-dioxopiperidin-3-yl)-7-methoxy-1-methyl-1H-indazol-6-yl)amino)-2-oxoethyl)-7-azaspiro[3.5]nonan-2-yl)methoxy)-2-(trifluoromethyl)phenyl)picolinic acid]
10 to 100	B (30% ≤ Ymin < 50%)	COc1c(NC(=O)CN2CCC3(CC2)CC(COc2ccc(-c4ccc(N5CCc6cccc(C(=O)Nc7nc8ccccc8s7)c6C5)nc4C(=O)O)c(C(F)(F)F)c2)C3)ccc2c(C3CCC(=O)NC3=O)nn(C)c12 (centres unmarked) [Compound 144, 6-(8-(benzo[d]thiazol-2-ylcarbamoyl)-3,4-dihydroisoquinolin-2(1H)-yl)-3-(4-((7-(2-((3-(2,6-dioxopiperidin-3-yl)-7-methoxy-1-methyl-1H-indazol-6-yl)amino)-2-oxoethyl)-7-azaspiro[3.5]nonan-2-yl)methoxy)-2-(trifluoromethyl)phenyl)picolinic acid]
10 to 100	C (50% ≤ Ymin < 70%)	Cn1nc(C2CCC(=O)NC2=O)c2ccc(NC(=O)CN3CCC(CCCOc4cccc(-c5ccc(N6CCc7cccc(C(=O)Nc8nc9ccccc9s8)c7C6)nc5C(=O)O)c4C(F)(F)F)CC3)nc21 (centres unmarked) [Compound 145]
10 to 100	B (30% ≤ Ymin < 50%)	Cn1nc(C2CCC(=O)NC2=O)c2ccc(NC(=O)CN3CCC(CCCOc4ccc(-c5ccc(N6CCc7cccc(C(=O)Nc8nc9ccccc9s8)c7C6)nc5C(=O)O)c(C(F)(F)F)c4)CC3)nc21 (centres unmarked) [Compound 146]
10 to 100	B (30% ≤ Ymin < 50%)	Cn1nc(C2CCC(=O)NC2=O)c2ccc(NC(=O)CN3CCC4(CC3)CC(COc3cccc(-c5ccc(N6CCc7cccc(C(=O)Nc8nc9ccccc9s8)c7C6)nc5C(=O)O)c3C(F)(F)F)C4)nc21 (centres unmarked) [Compound 147]
10 to 100	B (30% ≤ Ymin < 50%)	Cn1nc(C2CCC(=O)NC2=O)c2ccc(NC(=O)CN3CCC4(CC3)CC(COc3ccc(-c5ccc(N6CCc7cccc(C(=O)Nc8nc9ccccc9s8)c7C6)nc5C(=O)O)c(C(F)(F)F)c3)C4)nc21 (centres unmarked) [Compound 148]
< 10	A (Ymin < 30%)	Cc1c(OCC2CC3(CCN(CCCc4ccc5c(C6CCC(=O)NC6=O)nn(C)c5c4)CC3)C2)cccc1-c1ccc(N2CCc3cccc(C(=O)Nc4nc5ccccc5s4)c3C2)nc1C(=O)O (centres unmarked) [Compound 149, 6-[8-(1,3-benzothiazol-2-ylcarbamoyl)-3,4-dihydro-1H-isoquinolin-2-yl]-3-[3-[[7-[3-[3-(2,6-dioxo-3-piperidyl)-1-methyl-indazol-6-yl]propyl]-7-azaspiro[3.5]nonan-2-yl]methoxy]-2-methyl-phenyl]pyridine-2-carboxylic acid]
< 10	B (30% ≤ Ymin < 50%)	Cc1c(OCCCC2CCN(CCNc3ccc4c(C5CCC(=O)NC5=O)nn(C)c4c3)CC2)cccc1-c1ccc(N2CCc3cccc(C(=O)Nc4nc5ccccc5s4)c3C2)nc1C(=O)O (centres unmarked) [Compound 150, 6-[8-(1,3-benzothiazol-2-ylcarbamoyl)-3,4-dihydro-1H-isoquinolin-2-yl]-3-[3-[3-[1-[2-[[3-(2,6-dioxo-3-piperidyl)-1-methyl-indazol-6-yl]amino]ethyl]-4-piperidyl]propoxy]-2-methyl-phenyl]pyridine-2-carboxylic acid]
< 10	A (Ymin < 30%)	Cc1cc(OCCCC2CCN(CCCc3ccc4c(C5CCC(=O)NC5=O)nn(C)c4c3)CC2)ccc1-c1ccc(N2CCc3cccc(C(=O)Nc4nc5ccccc5s4)c3C2)nc1C(=O)O (centres unmarked) [Compound 151, 6-(8-(benzo[d]thiazol-2-ylcarbamoyl)-3,4-dihydroisoquinolin-2(1H)-yl)-3-(4-(3-(1-(3-(3-(2,6-dioxopiperidin-3-yl)-1-methyl-1H-indazol-6-yl)propyl)piperidin-4-yl)propoxy)-2-methylphenyl)picolinic acid]
< 10	B (30% ≤ Ymin < 50%)	Cc1c(OCC2CC3(CCN(CCOc4ccc5c(C6CCC(=O)NC6=O)nn(C)c5c4)CC3)C2)cccc1-c1ccc(N2CCc3cccc(C(=O)Nc4nc5ccccc5s4)c3C2)nc1C(=O)O (centres unmarked) [Compound 152, 6-(8-(benzo[d]thiazol-2-ylcarbamoyl)-3,4-dihydroisoquinolin-2(1H)-yl)-3-(3-((7-(2-((3-(2,6-dioxopiperidin-3-yl)-1-methyl-1H-indazol-6-yl)oxy)ethyl)-7-azaspiro[3.5]nonan-2-yl)methoxy)-2-methylphenyl)picolinic acid]
